This passage reports RP-LC retention time results from the METLIN SMRT retention time set (Domingo-Almenara et al. 2019).

A short description of the data set: gradient 5% acetonitrile 3 min, to 50% in 2 min, to 85% in 15 min, held 3 min, 100 µL/min. To be noted: column: Zorbax Extend-C18 2.1 x 50 mm; eluents: water / acetonitrile, 0.1% formic acid. Summed up: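 Retention time was recorded from adduct peaks, which were picked computationally and each inspected manually. Pure standards ran in mixtures of ~100 molecules on HPLC coupled to a quadrupole time-of-flight mass spectrometer, in positive and negative ionization mode, through a Zorbax Extend-C18 column (2.1 × 50 mm, 1.8 μm) at 100 μL/min. Eluents were water and acetonitrile, each with 0.1% formic acid.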
Compound `O=C1CC(c2ccc(Cl)cc2)Cc2nc(N3CCN(c4ccccn4)CC3)ncc21` (stereo not drawn) gave an RP-LC retention time of 752 s.
Under `O=C(CCc1ccc2c(c1)CN(C(=O)C1CC1)CCO2)NC1CCS(=O)(=O)C1` (stereo not drawn) stands 617 s; under `COc1ccc(-c2noc(C3(NC(=O)c4ccccc4OC)CCCCC3)n2)cc1`, 1210 s.
Under `CCOc1ccc(CC(=O)N2C[C@@H]3C[C@H]2C[C@@H]3NS(=O)(=O)c2cccs2)cc1` stands 791 s; under `Cc1cnc(C(=O)N2CCOCCNC(=O)[C@@H]3CCC[C@@H]32)cn1`, 599 s; under `COCCCNC(=O)C1CCCN(c2nnc3ccccn23)C1` (stereo not drawn), 529 s.
Take `CCNC(=O)N1CCCC(c2cccc(C(=O)NCC3CCCCC3)c2)C1` (stereo not drawn): the RP-LC retention time was found to be 891 s.
As for `Cc1nc2ccn(Cc3ccco3)c(=O)c2cc1C(=O)NCCCN1CCOCC1`, the figure is 578 s; as for `COc1cccc(CC(=O)N2CCC3(CC2)NC(=O)c2cc(C)ccc2N3C)c1`, 798 s; as for `COc1ccccc1N1CCN(CCCCNC(=O)c2ccc3ccccc3c2)CC1`, 666 s.
For the compound `Cc1ccc(NC(=O)N2CCCC2c2nc(-c3ccccc3)no2)cc1C` (stereo not drawn), the RP-LC retention time amounted to 1030 s.
Compound `C[C@]12CCC(=O)C[C@@H]1CC[C@@H]1[C@@H]2CC[C@@]2(C)[C@H]1CC[C@]2(C)O` returned an RP-LC retention time of 1050 s.
Under `CCOC(=O)C1CCN(C(=O)C2CCN(c3cncnc3N3CCCCC3)CC2)CC1` stands 651 s; under `CC(C)OCCCNc1nc(Nc2ccc3c(c2)OCO3)c2cnn(-c3ccccc3)c2n1`, 1140 s.
Compound `COC(=O)c1cc2c(=O)n(-c3nc4ccc(Cl)cc4s3)ccc2nc1C` displayed an RP-LC retention time of 1350 s.
`O=S(=O)(c1cccc(C(F)(F)F)c1)N1CCC(CN2CCCCC2)CC1` came in with an RP-LC retention time of 680 s.
Under `Cc1nn(Cc2ccc(C(=O)NCC3CC3)cc2)c(C)c1S(=O)(=O)N1CCCCC1` stands 859 s.
As for `CCCC1c2nccn2CCCN1C(=O)c1cc(C2CC2)[nH]n1` (stereo not drawn), the RP-LC retention time is 596 s.
As for `O=C(c1ccc(F)c(F)c1)N1CCCC1c1nc(-c2ccccc2Cl)no1` (stereo not drawn), the figure is 1000 s; as for `Cc1ccc(S(=O)(=O)N2CCC3(CCN(c4cccnc4)C3)C2)c(C)c1` (stereo not drawn), 684 s; as for `O=C(C1CCN(c2ncnc3c2oc2ccccc23)CC1)N1CCN(c2ccccc2)CC1`, 795 s.
Under `CC1=C(c2ccccc2)S(=O)(=O)N=C1N1CCCN(C(=O)c2ccccc2C)CC1` stands 808 s; under `O=C(Cn1cnc2c(nnn2-c2ccc(Br)cc2)c1=O)NCc1ccco1`, 776 s; under `CN1C/C=C/CCOc2cccc(c2)-c2ccnc(n2)Nc2cccc(c2)C1`, 742 s.
Take `COc1ccc(N2CCN(c3cc(SCC(=O)Nc4ccc(F)cc4F)ncn3)CC2)cc1`: the RP-LC retention time stood at 1050 s.
As for `CN(C)c1ccc(C(=O)Nc2cnc(N3CCOCC3)nc2)cc1`, the figure is 729 s; as for `COC(=O)c1ccc(N2C=C(C(=O)N3CCCC3)S(=O)(=O)c3ccc(Cl)cc32)cc1`, 842 s; as for `Cc1nc(-c2ccccc2)nn1C1CCN(S(=O)(=O)c2cccs2)C1` (stereo not drawn), 816 s.
As for `CCCn1c(CCc2ccccc2NS(=O)(=O)c2ccc3c(c2)OCCO3)nc2ccccc21`, the figure is 763 s.
The compound `CCOCCCNC(=O)c1c(N2CCCC2=O)c2cc(OC)ccc2n1CC` showed an RP-LC retention time of 761 s.
As for `Cn1c(N2CCCC(C(=O)NCc3ccc(F)cc3)C2)cc(=O)n(C)c1=O` (stereo not drawn), the figure is 680 s; as for `Cc1noc(-c2cccc(OC3CN(C(=O)c4cnn(C)c4)C3)c2)n1`, 700 s; as for `COc1ccc(-c2nn(-c3ccccc3)cc2C2NC(=O)NC(C)=C2C(=O)OC(C)C)cc1` (stereo not drawn), 906 s.
Under `O=C(NC1CC1)[C@@H]1C[C@H](Oc2cccnc2)CN1C(=O)c1ccc2ncccc2c1` stands 528 s.
Under `COc1ccc(S(=O)(=O)N2C[C@@H](F)C[C@H]2C(=O)N2CCCCC2)cc1Cl` stands 785 s.
`CC1(C)CC2(CCO1)OC(=O)CC2C(=O)Nc1ccccc1Cl` (stereo not drawn) registered an RP-LC retention time of 753 s.
Consider `CNC(=O)[C@@H]1CCCN1C(=O)c1ccccc1`, for which the RP-LC retention time came to 587 s.
As for `COCCCNC(=O)C1CCN(c2nccnc2Sc2cccc(C)c2)CC1`, the figure is 886 s; as for `CC(=O)N1CCc2cc(N3CC(C(=O)Nc4ccc(N5CCOCC5)cc4)CC3=O)ccc21` (stereo not drawn), 629 s.
Under `CCC(C)NC(=O)Cn1cccc(-c2nc(-c3ccc(Cl)cc3)no2)c1=O` (stereo not drawn) stands 852 s.
As for `Cc1[nH]c(C(=O)N2CCC(CC(=O)NCc3ccc4c(c3)OCO4)CC2)c(C)c1C(=O)OC(C)C`, the figure is 797 s; as for `COc1ccc(NC(=O)Cn2c(C)cc(-c3nnc(-c4ccccc4)o3)c2C)cc1F`, 943 s.
`CCC1CN(C(=O)N2CCC(C(=O)NCCN3CCCC3)CC2)c2ccccc2O1` (stereo not drawn) returned an RP-LC retention time of 620 s.
In turn, `O=C1CCCc2cc(S(=O)(=O)N3CCC(C(=O)NCc4ccc(F)cc4)CC3)ccc2N1` had an RP-LC retention time of 724 s.
Under `COc1ccc(OCc2nc(-c3ccc(S(=O)(=O)N4CCOCC4)cc3)no2)cc1` stands 1000 s; under `COc1cccc(-c2nc(-c3ccc4c(c3)ncn4CCN3CCCC3)no2)c1OC`, 643 s.
For the compound `CC(C)CNC(=O)c1ccc(-c2nc3cccnc3n2C2CCCCC2)cc1`, the RP-LC retention time turned out to be 926 s.
Under `COc1ccc(-c2nn(CCCC(=O)N3CCN(c4ccccc4)CC3)c(=O)c3noc(C)c23)cc1` stands 922 s; under `Cc1c(N2CCCC2)cc2c(c1NC(=O)c1ccccc1Cl)C(C)(C)CC2(C)C`, 874 s.
Under `Cc1nc(-c2ccc3c(c2)n(CC(=O)NC2CC2)c(=O)n3C(C)C)no1` stands 685 s; under `COC(=O)C1=CN(c2cc(OC)cc(OC)c2)c2ccc(F)cc2S1(=O)=O`, 908 s.
As for `Cc1ccc2oc(-c3nnc(C(=O)NCCN4CCCCCC4)o3)c(C)c2c1`, the figure is 720 s.
Turning to `CN1CC=C(c2noc(CCC(=O)N3CCC(c4ccccc4)C3)n2)CC1` (stereo not drawn), the RP-LC retention time amounted to 631 s.
As for `C=Cc1ccc(CN2CCCN(c3ncccc3-c3nc(CC)no3)CC2)cc1`, the figure is 722 s; as for `CC(C)Cc1ccc(S(=O)(=O)N2CCC(c3nc4cccnc4n3C)C2)cc1` (stereo not drawn), 929 s; as for `NC(=O)Cn1cnc2c(-c3ccc(F)cc3)nsc2c1=O`, 713 s.
As for `CCN1CCN(CCNC(=O)c2c(N3CCCC3=O)c3cc(OC)ccc3n2C)CC1`, the figure is 592 s; as for `CCC(C)NS(=O)(=O)c1cc(-c2nc(C)cs2)n(CC(=O)N2CCCCC2)c1` (stereo not drawn), 920 s.
